12 compounds from ChEMBL document CHEMBL5096171, “Synthesis and Biological Evaluation of PSMA Ligands with Aromatic Residues and Fluorescent Conjugates Based on Them” (J Med Chem, 2021) can be followed below.

Series [1] has as its target Glutamate carboxypeptidase 2 (Homo sapiens, UniProt Q04609). As to the kind of experiment: Inhibition of PSMA derived from human LNCaP cell lysate assessed as inhibition of NAAG hydrolysis incubated for 2 hrs in presence of NAAG by Amplex Red assay. The class given is subcellular.
A short description of series [2]: Cytotoxicity against HEK293T cells assessed as cell growth inhibition incubated for 5 days by MTT assay. The class given is toxicity, cell-based, HEK-293T. The note with it: human, time 5 day. (In general: Tetrazolium dyes change colour on reduction, which living cells bring about.)
The test system of the next series is MCF7. The series is described as follows: Cytotoxicity against human MCF7 cells assessed as cell growth inhibition incubated for 5 days by MTT assay. It counts as functional. To be noted: MCF7, 120 h, time 5 day.
The nature of series [3]: Cytotoxicity against human WI-38 VA13 cells assessed as cell growth inhibition incubated for 5 days by MTT assay. The class given is toxicity, cell-based. To be noted: time 5 day.
The next series relates to A549. As to the kind of experiment: Cytotoxicity against human A549 cells assessed as cell growth inhibition incubated for 5 days by MTT assay. The class given is functional. The note with it: A549, 120 h, time 5 day.
The test system of the next series is LNCaP. As to the kind of experiment: Cytotoxicity against human LNCaP cells assessed as reduction in cell viability incubated for 5 days by MTT assay. The note with it: 120 h, time 5 day. The class given is functional.
The next series relates to PC-3. The series is described as follows: Cytotoxicity against human PC-3 cells assessed as reduction in cell viability incubated for 5 days by MTT assay. It counts as functional. The note with it: PC-3, 120 h, time 5 day.
Series [4] in a line: Chronic toxicity in Soviet Chinchilla rabbit assessed as change in heart histology at 120 to 243 mg/kg, iv administered once every 3 weeks. It counts as organism-based, Oryctolagus cuniculus. The note with it: in vivo, 504 h, dose 120-243 mg/kg.
Series [5] is described as follows: Chronic toxicity in Soviet Chinchilla rabbit assessed as change in lung histology at 120 to 243 mg/kg, iv administered once every 3 weeks. The class given is organism-based, Oryctolagus cuniculus. The note with it: in vivo, 504 h, dose 120-243 mg/kg.
A short description of series [6]: Chronic toxicity in Soviet Chinchilla rabbit assessed as change in kidney histology at 120 to 243 mg/kg, iv administered once every 3 weeks. To be noted: in vivo, 504 h, dose 120-243 mg/kg. It counts as organism-based, Oryctolagus cuniculus.
The nature of series [7]: Chronic toxicity in Soviet Chinchilla rabbit assessed as change in brain histology at 120 to 243 mg/kg, iv administered once every 3 weeks. The class given is organism-based, Oryctolagus cuniculus. The note with it: in vivo, 504 h, dose 120-243 mg/kg.
Series [8] can be described thus: Chronic toxicity in Soviet Chinchilla rabbit assessed as signs of intoxication at 120 to 243 mg/kg, iv administered once every 3 weeks. To be noted: in vivo, 504 h, dose 120-243 mg/kg. It counts as organism-based, Oryctolagus cuniculus.
A short description of series [9]: Chronic toxicity in Soviet Chinchilla rabbit assessed as change in liver histology at 120 to 243 mg/kg, iv administered once every 3 weeks. It counts as organism-based, Oryctolagus cuniculus. To be noted: in vivo, 504 h, dose 120-243 mg/kg.
The nature of series [10]: Chronic toxicity in Soviet Chinchilla rabbit assessed as change in blood albumin content at 120 to 243 mg/kg, iv administered once every 3 weeks. It counts as organism-based, Oryctolagus cuniculus. To be noted: in vivo, 504 h, dose 120-243 mg/kg.
Series [11] is described as follows: Chronic toxicity in Soviet Chinchilla rabbit assessed as change in spleen histology at 120 to 243 mg/kg, iv administered once every 3 weeks. It counts as organism-based, Oryctolagus cuniculus. The note with it: in vivo, 504 h, dose 120-243 mg/kg.
Series [12] can be described thus: Drug uptake in human 22Rv1 cells assessed as drug accumulation by measuring fluorescence signal at 4 uM incubated for 30 mins by flow cytometry. It counts as ADME, cell-based. The note with it: cwr22r, 0.5 h. In general terms: In flow cytometry, cells or beads pass a laser one at a time.
Series [13] in a line: Drug uptake in human PC-3 cells assessed as decrease in drug accumulation incubated for 1 hr in presence of (3S,7S,25S,28S)-33-Azido-25-benzyl-12-(3-chlorobenzyl)-28-(4-hydroxybenzyl)-5,13,20,23,26,29-hexaoxo-4,6,12,19,24,27,30-heptaazatritriacontane-1,3,7-tricarboxylic acid by flow cytometry. The class given is ADME, cell-based. The note with it: pc-3, 1 h.
A short description of series [14]: Drug uptake in human LNCaP cells assessed as decrease in drug accumulation incubated for 1 hr in presence of (3S,7S,25S,28S)-33-Azido-25-benzyl-12-(3-chlorobenzyl)-28-(4-hydroxybenzyl)-5,13,20,23,26,29-hexaoxo-4,6,12,19,24,27,30-heptaazatritriacontane-1,3,7-tricarboxylic acid by flow cytometry. The class given is ADME, cell-based.
Series [15] is described as follows: Drug uptake in human PC-3 cells assessed as drug accumulation by measuring fluorescence signal at 4 uM incubated for 30 mins by flow cytometry. The note with it: pc-3, 0.5 h. The class given is ADME, cell-based.
The nature of series [16]: Drug uptake in human 22Rv1 cells assessed as decrease in drug accumulation incubated for 1 hr in presence of (3S,7S,25S,28S)-33-Azido-25-benzyl-12-(3-chlorobenzyl)-28-(4-hydroxybenzyl)-5,13,20,23,26,29-hexaoxo-4,6,12,19,24,27,30-heptaazatritriacontane-1,3,7-tricarboxylic acid by flow cytometry. To be noted: cwr22r. It counts as ADME, cell-based.
A short description of series [17]: Drug uptake in human LNCaP cells assessed as drug accumulation by measuring fluorescence signal at 4 uM incubated for 30 mins by flow cytometry. It counts as ADME, cell-based. To be noted: 0.5 h.

Glutamate carboxypeptidase 2, sequence (Q04609 whole entry): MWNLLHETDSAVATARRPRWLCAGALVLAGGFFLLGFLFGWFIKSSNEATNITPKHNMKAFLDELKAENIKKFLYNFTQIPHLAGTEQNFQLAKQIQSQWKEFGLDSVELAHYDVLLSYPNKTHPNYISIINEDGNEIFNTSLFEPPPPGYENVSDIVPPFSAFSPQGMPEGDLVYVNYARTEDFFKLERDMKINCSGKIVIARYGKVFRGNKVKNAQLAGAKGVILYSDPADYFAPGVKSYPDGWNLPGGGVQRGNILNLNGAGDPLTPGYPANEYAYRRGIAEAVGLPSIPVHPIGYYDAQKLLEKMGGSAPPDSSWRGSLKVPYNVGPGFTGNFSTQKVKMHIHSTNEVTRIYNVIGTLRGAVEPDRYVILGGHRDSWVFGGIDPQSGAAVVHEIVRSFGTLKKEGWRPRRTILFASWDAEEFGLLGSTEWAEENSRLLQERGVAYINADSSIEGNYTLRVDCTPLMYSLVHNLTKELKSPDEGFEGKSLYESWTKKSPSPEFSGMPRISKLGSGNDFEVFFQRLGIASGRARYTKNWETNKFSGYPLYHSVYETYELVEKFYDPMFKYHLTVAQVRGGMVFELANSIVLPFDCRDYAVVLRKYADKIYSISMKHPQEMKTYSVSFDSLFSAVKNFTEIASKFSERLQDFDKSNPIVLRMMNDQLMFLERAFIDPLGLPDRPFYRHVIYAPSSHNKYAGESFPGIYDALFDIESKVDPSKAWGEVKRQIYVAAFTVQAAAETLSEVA

For `[N-]=[N+]=NCCCNC(=O)[C@H](Cc1ccc(O)cc1)NC(=O)[C@H](Cc1ccccc1)NC(=O)CCC(=O)NCCCCCC(=O)N(CCCC[C@H](NC(=O)N[C@@H](CCC(=O)O)C(=O)O)C(=O)O)Cc1ccc(Br)cc1`, in series [1], the IC50 (commonly the midpoint of a concentration-inhibition curve) amounted to 17 nM. For the same compound, the CC50 at 120 h in [2] and in [3] was more than 100 µM throughout. The CC50 in the series on MCF7 and in the series on A549 was more than 100 µM throughout.

For the compound `[N-]=[N+]=NCCCNC(=O)[C@H](Cc1ccc(O)cc1)NC(=O)[C@H](Cc1ccccc1)NC(=O)CCC(=O)NCCCCCC(=O)N(CCCC[C@H](NC(=O)N[C@@H](CCC(=O)O)C(=O)O)C(=O)O)Cc1cccc(Cl)c1`, the IC50 in series [1] is 3 nM. Besides, the Ki (in general, a measure of affinity in units of concentration, obtained from inhibition or displacement) in series [1] came to 1 nM. Moreover, the CC50 at 120 h in series [2] and in series [3] was more than 100 µM in each case. Moreover, the CC50 with MCF7, in the series on LNCaP, with A549 and in the series on PC-3 was more than 100 µM in each case.

For the compound `[N-]=[N+]=NCCCNC(=O)[C@@H](Cc1ccccc1)NC(=O)[C@@H](Cc1ccccc1)NC(=O)CCC(=O)NCCCCCC(=O)N(CCCC[C@H](NC(=O)N[C@@H](CCC(=O)O)C(=O)O)C(=O)O)Cc1ccc(Br)cc1`, in series [1], the IC50 was 319 nM. Moreover, the 50% cytotoxic concentration (CC50) (as a rule, the concentration at which the toxic effect on the cells reaches its halfway point) at 120 h in series [2] is 88 µM; in series [3], more than 100 µM. Also, the CC50 with MCF7 and in the series on A549 was more than 100 µM each time.

As for `[N-]=[N+]=NCCCNC(=O)[C@H](Cc1ccccc1)NC(=O)[C@H](Cc1ccccc1)NC(=O)CCC(=O)NCCCCCC(=O)N(CCCC[C@H](NC(=O)N[C@@H](CCC(=O)O)C(=O)O)C(=O)O)Cc1ccccc1`, the IC50 in [1] was found to be 28 nM. In addition, the results for the CC50 at 120 h in series [2] and in [3] were 114 µM and more than 100 µM, respectively. Also, the CC50 with MCF7 and with A549 was more than 100 µM each time.

Turning to `[N-]=[N+]=NCCCNC(=O)[C@H](Cc1ccc(O)cc1)NC(=O)[C@H](Cc1ccccc1)NC(=O)CCC(=O)NCCCCCC(=O)N(CCCC[C@H](NC(=O)N[C@@H](CCC(=O)O)C(=O)O)C(=O)O)Cc1ccc(Cl)c(F)c1`, the IC50 in series [1] came to 62 nM. In addition, the CC50 at 120 h in [2] and in series [3] was more than 100 µM in each case. Also, the CC50 with MCF7 and with A549 was more than 100 µM in each case.

With `[N-]=[N+]=NCCCNC(=O)[C@H](Cc1ccccc1)NC(=O)[C@H](Cc1ccccc1)NC(=O)CCC(=O)NCCCC(=O)N(CCCC[C@H](NC(=O)N[C@@H](CCC(=O)O)C(=O)O)C(=O)O)Cc1ccccc1`, the IC50 in series [1] was found to be 175 nM. The CC50 at 120 h in series [2] and in series [3] was more than 100 µM each time. Further, the CC50 with MCF7 and with A549 was more than 100 µM in each case.

On to `[N-]=[N+]=NCCCNC(=O)[C@H](Cc1ccccc1)NC(=O)[C@H](Cc1ccccc1)NC(=O)CCC(=O)NCCCCCC(=O)N(CCCC[C@H](NC(=O)N[C@@H](CCC(=O)O)C(=O)O)C(=O)O)Cc1ccc(Br)cc1`, for which, in series [1], the IC50 came out at 50 nM. The CC50 at 120 h in [2] and in series [3] was more than 100 µM each time. Besides, the CC50 in the series on MCF7 and in the series with A549 was more than 100 µM in each case.

`CN1/C(=C/C=C2C=C(/C=C/C3=[N+](CCCCCC(=O)O)c4ccc(S(=O)(=O)[O-])cc4C3(C)C)CCC/2)C(C)(C)c2cc(S(=O)(=O)O)ccc21`: the Activity result in [4], in series [5], in [6], in series [7], in [8] and in series [9] was “Non-Toxic” each time. Moreover, the figures for the Activity result in series [10] and in [11] were “Toxic” and “Non-Toxic”, respectively. The CC50 with LNCaP and with PC-3 was more than 100 µM each time.

Regarding `O=C(O)CC[C@H](NC(=O)N[C@@H](CCCCN(Cc1cccc(Cl)c1)C(=O)CCCCCNC(=O)CCC(=O)N[C@@H](Cc1ccccc1)C(=O)N[C@@H](Cc1ccc(O)cc1)C(=O)NCCCn1cc(CNC(=O)c2cccc3c2C(=O)OC32c3ccc(O)cc3Oc3cc(O)ccc32)nn1)C(=O)O)C(=O)O`, the Drug uptake in [12] is reported as 14.4%; in [13], “Active”; in series [14] it was “Active”; in series [15] it was 7.6%; in [16] it was “Active”; in series [17], 83.8%.

For the compound `[N-]=[N+]=NCCCNC(=O)[C@H](Cc1ccccc1)NC(=O)[C@H](Cc1ccccc1)NC(=O)CCC(=O)NCCCCCC(=O)N(CCCC[C@H](NC(=O)N[C@@H](CCC(=O)O)C(=O)O)C(=O)O)Cc1ccc(Cl)c(F)c1`, the IC50 in series [1] turned out to be 63 nM. Besides, the CC50 at 120 h in series [2] is 71 µM; in series [3], more than 100 µM. Further, the CC50 with MCF7 and in the series on A549 was more than 100 µM throughout.

Regarding `[N-]=[N+]=NCCCNC(=O)[C@H](Cc1ccccc1)NC(=O)[C@H](Cc1ccccc1)NC(=O)CCC(=O)NCCCCCC(=O)N(CCCC[C@H](NC(=O)N[C@@H](CCC(=O)O)C(=O)O)C(=O)O)Cc1ccc(Cl)cc1F`, the IC50 in [1] turned out to be 43 nM. For the same compound, the CC50 at 120 h in [2] and in [3] was more than 100 µM each time. The CC50 in the series on MCF7 and in the series with A549 was more than 100 µM in each case.

On to `CN1/C(=C/C=C/C=C/C2=[N+](CCCCCC(=O)O)c3ccc(S(=O)(=O)[O-])cc3C2(C)C)C(C)(C)c2cc(S(=O)(=O)O)ccc21`, for which the Drug uptake in [12] is 57.5%; in series [15] it was 41.1%; in series [17] it was 98.4%. Moreover, the CC50 in the series on LNCaP and in the series on PC-3 was more than 100 µM throughout.
